Test results: patent publication US7022716B2, “Cyclic amine phenyl beta-3 adrenergic receptor agonists” (Wyeth, priority 2000, dated 2006)

Molecular target: T1, human β3 adrenergic receptor (Homo sapiens, UniProt P13945)
T1 construct: Full length β3 AR clones (402 amino acids) containing the last 6 amino acids of hβ3-AR are prepared; expressed in transfected cells; host or cells: CHO (Chinese hamster ovary) cells
Assay: cAMP (SPA) response in CHO cells transfected with human β3 adrenergic receptor
Assay type: cell-based
Parameters: key: fraction of maximal isoproterenol (10^-5 M) response
Settings: maximal response relative to maximal response of isoproterenol at 10^-5 M
Experimental: Binding to the receptors was measured in Chinese Hamster ovary (CHO) cells that were transfected with adrenergic receptors.
The corresponding primer sequences are described in Mantzoros, C. […] The four fragments are ligated into a pUC 18 plasmid (Gibco-BRL) and sequenced.
CHO cells were grown in 24-well tissue culture plates in Dulbecco's Modified Eagle Media with 10% fetal bovine serum, MEM non-essential amino acids, Penicillin-Streptompycin and Geneticin. On the day of test procedure, growth medium was replaced with preincubation media (Dulbecco's Modified Eagle, Media) and incubated for 30 minutes at 37° C. […] Test compounds were tested over a concentration range of 10^−9 M to 10^−5 M for β3 cells and 10^−8 to 10^−4 M for β1 and β2 transfected cells. Isoproterenol (10^−5 M) was used as an internal standard for comparison of activity. Cells were incubated at 37° C. on a rocker for 30 min with the β3 cells and 15 min for β1 and β2 cells. Incubation was stopped with the addition of 0.2N HCl and neutralized with 2.5N NaOH. The plates, containing the cells and neutralized media, were stored at −20 degrees celsius until ready to test for cAMP using the SPA test kit (Amersham).
Data Analysis and Results: Data collected from the SPA test procedure were analyzed as percent of the maximal isoproterenol response at 10^−5 M. Activity curves were plotted using the SAS statistical and graphics software.

T1 sequence (P13945 whole entry): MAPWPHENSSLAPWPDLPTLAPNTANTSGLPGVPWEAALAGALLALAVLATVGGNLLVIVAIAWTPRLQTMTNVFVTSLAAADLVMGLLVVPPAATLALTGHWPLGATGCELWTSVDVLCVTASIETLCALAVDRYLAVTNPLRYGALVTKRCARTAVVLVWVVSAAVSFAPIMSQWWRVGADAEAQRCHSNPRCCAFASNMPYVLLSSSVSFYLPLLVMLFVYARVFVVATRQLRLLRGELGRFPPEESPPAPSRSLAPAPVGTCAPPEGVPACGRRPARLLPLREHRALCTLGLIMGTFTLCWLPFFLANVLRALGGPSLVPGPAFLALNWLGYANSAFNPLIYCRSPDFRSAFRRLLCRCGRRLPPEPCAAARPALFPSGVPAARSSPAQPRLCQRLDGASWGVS

Row | Compound | IA(β3)
1 | 5-[4-(4-{[4-(2S)-2-(3-Bromoisoxazol-5-yl)-2-hydroxyethyl]amino}piperidine-1-yl)benzyl]-1,3-thiazolidine-2,4-dione [Example 122] | 0.46
2 | O=C1NC(=O)C(Cc2ccc(N3CCC(NC[C@H](O)COc4cccc5[nH]c(=O)[nH]c45)CC3)c(F)c2)S1 (stereo partly drawn) [Example 67, 5-(3-Fluoro-4-{4-[(2S)-2-hydroxy-3-(2-oxo-2,3-dihydro-1H-benzoimidazol-4-yloxy)-propylamino]-piperidin-1-yl}-benzyl)-thiazolidine-2,4-dione] | 1.06
3 | O=C1NC(=O)C(=Cc2ccc(N3CCC(NC[C@H](O)COc4cccc5[nH]c(=O)[nH]c45)CC3)c(Br)c2)S1 [Example 68, 5-(3-Bromo-4-{4-[(2S)-2-hydroxy-3-(2-oxo-2,3-dihydro-1H-benzoimidazol-4-yloxy)-propylamino]-piperidin-1-yl}-benzylidene)-thiazolidine-2,4-dione] | 1
4 | O=C1NC(=S)SC1=Cc1ccc(N2CCC(NC[C@H](O)COc3ccc(O)cc3)CC2)cc1 [Example 82, 5-(4-{4-[(2S)-2-Hydroxy-3-(4-hydroxy)-propylamino]-piperidin-1-yl}-benzylidene)-2-thioxo-thiazolidin-4-one] | 1.07
5 | CCOC(=O)c1ccc(N2CCC(NC[C@H](O)c3cccc(Cl)c3)CC2)cc1.Cl [Example 181, {4-[(2R)-2-(3-Chloro-phenyl)-2-hydroxy-ethylamino]-piperidin-1-yl}-benzoic acid ethyl ester hydrochloride] | 0.56
6 | CS(=O)(=O)Nc1cc([C@@H](O)CNC2CCN(c3ccc(C(=O)NCC(=O)O)cc3)CC2)ccc1O [Example 197, [(4-{4-[((2R)-2-Hydroxy-2-{4-hydroxy-3-[(methylsulfonyl)amino]phenyl}ethyl)amino]-1-piperidinyl}benzoyl)amino]acetic acid] | 0.94
7 | CC(C)C[C@H](NC(=O)c1ccc(N2CCC(NC[C@H](O)c3ccc(O)c(NS(C)(=O)=O)c3)CC2)cc1)C(=O)O [Example 199, (2S)-2-(4-{4-[(2R)-2-Hydroxy-2-(4-hydroxy-3-methanesulfonylamino-phenyl)-ethylamino]-piperidin-1-yl}-benzoylamino)-4-methyl-pentanoic acid] | 1
8 | CC(C)[C@H](NC(=O)c1ccc(N2CCC(NC[C@H](O)c3ccc(O)c(NS(C)(=O)=O)c3)CC2)cc1)C(=O)O [Example 203, (2S)-2-(4-{4-[(2R)-2-Hydroxy-2-(4-hydroxy-3-methanesulfonylamino-phenyl)-ethylamino]-piperidin-1-yl}-benzoylamino)-3-methyl-butyric acid] | 1.1
9 | COc1ccc(S(=O)(=O)Nc2ccc(N3CCC(NCC(O)c4ccccc4)CC3)cc2)cc1 (centres unmarked) [Example 255, N-{4-[4-(2-Hydroxy-2-phenyl-ethylamino)-piperidin-1-yl]-phenyl}-4-methoxy-benzenesulfonamide] | 0.72
10 | COc1ccc(S(=O)(=O)Nc2ccc(N3CCC(NCC(O)c4cccc(O)c4)CC3)cc2)cc1 (centres unmarked) [Example 256, N-(4-{4-[2-Hydroxy-2-(3-hydroxy-phenyl)-ethylamino]-piperidin-1-yl}-phenyl)-4-methoxy-benzenesulfonamide] | 0.85
11 | CC(=O)Nc1ccc(S(=O)(=O)Nc2ccc(N3CCC(NCC(O)c4cccc(O)c4)CC3)cc2)cc1 (centres unmarked) [Example 257, N-[4-(4-{4-[2-Hydroxy-2-(3-hydroxy-phenyl)-ethylamino]-piperidin-1-yl}-phenylsulfamoyl)-phenyl]-acetamide] | 0.88
12 | CC(=O)Nc1ccc(S(=O)(=O)Nc2ccc(N3CCC(NC[C@H](O)c4ccccc4)CC3)cc2)cc1 [Example 258, N-(4-{4-[4-((2R)-2-Hydroxy-2-phenyl-ethylamino)-piperidin-1-yl]-phenylsulfamoyl}-phenyl)-acetamide] | 0.7
13 | CC(=O)Nc1ccc(S(=O)(=O)Nc2ccc(N3CCC(NCC(O)c4ccc(O)cc4)CC3)cc2)cc1 (centres unmarked) [Example 259, N-(4-{[4-(4-{[2-Hydroxy-2-(4-hydroxyphenyl)ethyl]amino}-1-piperidinyl)-anilino]sulfonyl}phenyl)acetamide] | 0.97
14 | COc1ccc(S(=O)(=O)Nc2ccc(N3CCC(NC[C@H](O)c4cccc(Cl)c4)CC3)cc2)cc1 [Example 260, N-[4-(4-{[(2R)-2-(3-Chlorophenyl)-2-hydroxyethyl]amino}-1-piperidinyl)phenyl]-4-methoxybenzenesulfonamide] | 0.63
15 | COc1ccc(S(=O)(=O)Nc2ccc(N3CCC(NC[C@H](O)c4ccccc4)CC3)cc2)cc1 [Example 261, N-[4-(4-{[(2R)-2-Hydroxy-2-phenylethyl]amino}-1-piperidinyl)phenyl]-4-methoxybenzenesulfonamide] | 0.73
16 | CC(=O)Nc1ccc(S(=O)(=O)Nc2ccc(N3CCC(NC[C@H](O)c4ccc(O)c(O)c4)CC3)cc2)cc1 [Example 263, N-(4-{[4-(4-{[(2R)-2-(3,4-Dihydroxyphenyl)-2-hydroxyethyl]amino}-1-piperidinyl)anilino]sulfonyl}phenyl)acetamide] | 0.93
17 | CC(=O)Nc1ccc(S(=O)(=O)Nc2ccccc2N2CCC(NCC(O)c3cccc(O)c3)CC2)cc1 (centres unmarked) [Example 264, N-(4-{[2-(4-{[2-Hydroxy-2-(3-hydroxyphenyl)ethyl]amino}-1-piperidinyl)anilino]-sulfonyl}phenyl)acetamide] | 0.37
18 | CC(=O)Nc1ccc(S(=O)(=O)Nc2ccccc2N2CCC(NC[C@H](O)c3ccc(O)c(O)c3)CC2)cc1 [Example 265, N-(4-{[2-(4-{[(2R)-2-(3,4-Dihydroxyphenyl)-2-hydroxyethyl]amino}-1-piperidinyl)-anilino]sulfonyl}phenyl)acetamide] | 0.8
19 | COc1ccc(S(=O)(=O)Nc2ccc(N3CCC(NC[C@H](O)c4ccc(O)c(O)c4)CC3)cc2)cc1 [Example 266, N-[4-(4-{[(2R)-2-(3,4-Dihydroxyphenyl)-2-hydroxyethyl]amino}-1-piperidinyl)phenyl]-4-methoxybenzenesulfonamide] | 0.86
20 | COc1cc(C(O)CNC2CCN(c3ccc(NS(=O)(=O)c4ccc(NC(C)=O)cc4)cc3)CC2)ccc1O (centres unmarked) [Example 267, N-(4-{[4-(4-{[2-Hydroxy-2-(4-hydroxy-3-methoxyphenyl)ethyl]amino}-1-piperidinyl)anilino]sulfonyl}phenyl)acetamide] | 0.99
21 | CC(=O)Nc1ccc(S(=O)(=O)Nc2ccc(N3CCC(NCC(O)c4ccc(O)cc4O)CC3)cc2)cc1 (centres unmarked) [Example 268, N-(4-{[4-(4-{[2-(2,4-Dihydroxyphenyl)-2-hydroxyethyl]amino}-1-piperidinyl)-anilino]sulfonyl}phenyl)acetamide] | 0.64
22 | CC(=O)Nc1ccc(S(=O)(=O)Nc2ccc(N3CCC(NCC(O)c4ccc(O)c(NS(C)(=O)=O)c4)CC3)cc2)cc1 (centres unmarked) [Example 270, N-{4-[(4-{4-[(2-Hydroxy-2-{4-hydroxy-3-[(methylsulfonyl)amino]phenyl}ethyl)amino]-1-piperidinyl}anilino)sulfonyl]phenyl}acetamide] | 1.09
23 | CCCCCCNC(=O)Nc1ccc(S(=O)(=O)Nc2ccc(N3CCC(NCC(O)c4ccc(C)nc4)CC3)cc2)cc1 (centres unmarked) [Example 271, 4-{[(Hexylamino)carbonyl]amino}-N-[4-(4-{[2-hydroxy-2-(6-methyl-3-pyridinyl)ethyl]amino}-1-piperidinyl)phenyl]benzenesulfonamide] | 0.84
24 | CC(=O)Nc1ccc(S(=O)(=O)Nc2ccc(N3CCC(NC[C@H](O)COc4ccccc4)CC3)cc2)cc1 [Example 272, N-(4-{[4-(4-{[(2S)-2-Hydroxy-3-phenoxypropyl]amino}-1-piperidinyl)anilino]-sulfonyl}phenyl)acetamide] | 0.57
25 | CC(=O)Nc1ccc(S(=O)(=O)Nc2ccc(N3CCC(NCC(O)c4cc(C(N)=O)c5[nH]ccc5c4)CC3)cc2)cc1 (centres unmarked) [Example 273, 5-[2-({1-[4-({[4-(Acetylamino)phenyl]sulfonyl}amino)phenyl]-4-piperidinyl}amino)-1-hydroxyethyl]-1H-indole-7-carboxamide] | 1.05
26 | CC(=O)Nc1ccc(S(=O)(=O)Nc2ccc(N3CCC(NC[C@H](O)COc4cccc5[nH]c(=O)[nH]c45)CC3)cc2)cc1 [Example 274] | 1.15
27 | CCCCCCNC(=O)Nc1ccc(S(=O)(=O)Nc2ccc(N3CCC(NC[C@H](O)COc4cccc5[nH]c(=O)[nH]c45)CC3)cc2)cc1 [Example 275, 4-{[(Hexylamino)carbonyl]amino}-N-{4-[4-({(2S)-2-hydroxy-3-[(2-oxo-2,3-dihydro-1H-benzimidazol-4-yl)oxy]propyl}amino)-1-piperidinyl]phenyl}benzenesulfonamide] | 0.73
28 | CCCCCCNC(=O)Nc1ccc(S(=O)(=O)Nc2ccc(N3CCC(NC[C@H](O)c4ccc(O)c(NS(C)(=O)=O)c4)CC3)cc2)cc1 [Example 276, 4-{[(Hexylamino)carbonyl]amino}-N-(4-{4-[((2R)-2-hydroxy-2-{4-hydroxy-3-[(methylsulfonyl)amino]phenyl}ethyl)amino]-1-piperidinyl}phenyl)benzenesulfonamide] | 1.1
29 | O=c1[nH]c2cccc(OC[C@@H](O)CNC3CCN(c4ccc(NS(=O)(=O)c5ccc(-n6nnn(CCCC7CCCC7)c6=O)cc5)cc4)CC3)c2[nH]1 [Example 277] | 0.58
